Like-named read-outs stand apart in the source and are kept apart here.
How the values were obtained:
[1] = target: T1, Candida antartica lipase fraction B (CALB) (Moesziomyces antarcticus, UniProt P41365); assay type: biochemical; conditions: 0.20m succinate, 5 h, pH 6
T1 construct: purchased Boehringer Mannheim CHIRAZYME L-2
T1 sequence (P41365 26-342): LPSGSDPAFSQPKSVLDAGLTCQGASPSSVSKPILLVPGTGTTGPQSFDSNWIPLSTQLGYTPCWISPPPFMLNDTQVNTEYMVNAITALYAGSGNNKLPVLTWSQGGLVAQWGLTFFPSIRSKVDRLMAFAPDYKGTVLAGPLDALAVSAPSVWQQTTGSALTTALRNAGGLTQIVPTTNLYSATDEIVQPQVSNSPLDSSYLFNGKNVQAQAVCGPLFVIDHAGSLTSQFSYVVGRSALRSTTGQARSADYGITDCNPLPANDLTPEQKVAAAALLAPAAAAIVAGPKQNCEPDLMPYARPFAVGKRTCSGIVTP
Procedure: (§1) Reacting a 0.10M solution of the 1:1 mixture of KDP(MEMC) and KLP(MEMC) in 0.20M succinate (pH 6.0) at 25° C. for 5 h with approximately 1-3 mg/mL of Candida antartica lipase fraction B (CALB) produced a 95% ee (substrate) of KDP(MEMC) at 51% conversion. […] The calculated enantioselectivity (E) at 51% conversion was E=81.
(§2) The enzymatic hydrolysis reaction of KDP(MEMC) and KLP(MEMC) using CALB (described above) was repeated at pH 5.0 in 0.20M acetate buffer (Example 2), and a 100% ee (substrate) of the D-isomer was obtained at 51% conversion (E=>1000); the reaction rate was approximately 50% of the rate at pH 6.0, and the slight loss of the D-isomer at pH 5.0 was again observed in the absence of added enzyme (95% recovery at pH 5.0 after 24 h with no enzyme).
The procedure described in Example I was repeated using Candida antartica lipase fraction B (CALB), except that the reaction was run in 0.200M sodium cetate (pH 5.0) instead of the 0.20M sodium succinate buffer (pH 6.0) used for Candida antartica lipase fraction B in Example 1. Aqueous solutions (5.0 mL) containing varying concentrations of a racemic mixture of N-(methoxycarbonyl)-4-keto-D,L-proline methyl ester and CALB were mixed at 15° C., 25° C., 35° C. or 45° C.
An aqueous solution (5.0 mL) containing 25 mM N-(methoxycarbonyl)-4-keto-Dproline methyl ester and 25 mM N-(methoxycarbonyl)-4-keto-L-proline methyl ester in 0.200M sodium acetate (pH 5.0) was mixed with 2.5 g of immobilized Candida antartica lipase fraction B (Boehringer Mannheim, CHIRAZYME® L-2, c.-f., C2, lyo.) at 25° C. […] The dichloromethane extract was then analyzed by chiral gas chromatography on a Chiraldex G-TA column (Advanced Separation Technologies, Inc., 50 m×0.32 mm ID) to determine the amounts of the unreacted D- and L-isomers. After 31 h, an 85% enantiomeric excess of N-(methoxycarbonyl)-4-keto-D-proline methyl ester was obtained at 41% conversion of the racemic mixture.
A 200 mL aqueous solution containing 0.200M sodium acetate (pH 5.0), 1.3325 g of Candida antartica lipase fraction B, and 4.02 g of racemic N-(methoxycarbonyl)-4-keto-D,L-proline methyl ester (100 mM) was stirred at 25° C. After 24 h, an 96% enantiomeric excess of N-(methoxycarbonyl)-4-keto-D-proline methyl ester was obtained at 50% conversion of the racemic mixture. The reaction mixture was filtered using a 10,000 MWCO membrane filter (Amicon) to remove the enzyme catalyst, and the filtrate extracted with three 200 mL portions of dichloromethane. The combined organic extracts were dried over magnesium sulfate, filtered, and the dichloromethane removed from the filtrate by rotary evaporation at reduced pressure. Residual dichloromethane was removed from the resulting colorless oil at high vacuum (50 millitorr) to produce N-(methoxycarbonyl)-4-keto-D-proline methyl ester as a white solid (1.99 g, 99% isolated yield, 99% purity (by GC), 97% ee).
An aqueous solution (2.0 mL) containing 50 mM N-(ethoxycarbonyl)-4-keto-D-proline ethyl ester and 50 mM N-(ethoxycarbonyl)-4-keto-L-proline ethyl ester in 0.200M sodium acetate (pH 5.0) and 30 mg/mL of Candida antartica lipase fraction B was mixed at 25° C. […] The dichloromethane extract was then analyzed by chiral gas chromatography on a Chiraldex G-TA column (Advanced Separation Technologies, Inc., 50 m×0.32 mm ID) to determine the amounts of the unreacted D- and L-isomers. After 24 h, a 100% enantiomeric excess of N-(ethoxycarbonyl)-4-keto-D-proline ethyl ester was obtained at 51% conversion of the racemic mixture.
An aqueous solution (1.0 mL) containing 19 mM of N-(2-phenylacetyl)-4-keto-D-proline methyl ester and 19 mM of N-(2-phenylacetyl)-4-keto-L-proline methyl ester in 0.200M sodium acetate (pH 5.0) and 25 mg/mL of Candida antartica lipase fraction B was mixed at 25° C. […]

[2] = Stability of aqueous solutions of the esters in the absence of enzyme; assay type: physicochemical; conditions: for isomer lost without added enzyme: pH 6.0, identical reaction conditions (0.20M succinate, 25° C.), 5 h
Procedure: as §1, §2
The pH of the reaction mixture is also chosen to optimize the reaction rate, the stability of the enzyme catalyst activity, and the stability of the ketoproline or hydroxyproline derivatives. The stability of aqueous solutions of N-(alkoxy-carbonyl)-4-ketoproline alkyl esters or N-(alkoxycarbonyl)-4-hydroxyproline alkyl esters were dependent on pH. […] For resolution of mixtures of N-(alkoxycarbonyl)-4-keto-D,L-proline alkyl esters, a pH range of from 3.0 to 6.0 is preferred, and a pH range of from 4.0 to 5.0 is most preferred. For resolution of diastereomeric mixtures of N-(alkoxycarbonyl)-4-hydroxy-proline alkyl esters, a pH range of from 3.0 to 7.5 is preferred, and a pH range of from 6.0 to 7.0 is most preferred.

[3] = target: T1, Candida antartica lipase fraction B (CALB); assay type: biochemical
Procedure: Using CALB for the diastereomeric resolution of five of the six possible pairs of diastereomers of N-(methoxycarbonyl)-4-hydroxyproline methyl esters produced the diastereomeric excesses at the indicated conversions listed in Table 1 below.
(§3) A 3.0 mL aqueous solution containing 50 mM N-(methoxycarbonyl)-trans-4-hydroxy-L-proline methyl ester and 50 mM N-(methoxycarbonyl)-cis-4-hydroxy-D-proline methyl ester in 0.100M potassium phosphate (pH 7.0) was mixed with 2.1 mg/mL of Candida antartica lipase fraction B at 25° C. The reaction was analyzed by removal of a 0.200 mL sample and mixing with an equivalent volume of 0.100M propionic acid (HPLC internal standard) in water. The resulting solution was filtered through a 10K molecular weight cut-off filter to remove the enzyme and the filtrate analyzed by high pressure liquid chromatography on a HPX-87H column (Bio-Rad, 30 cm×7.8 mm) to determine the percent conversion of each isomer of the diastereomeric mixture, and the diastereomeric excess of the N-(methoxycarbonyl)-cis-4-hydroxy-D-proline methyl ester.
A 2.0 mL aqueous solution containing 50 mM N-(methoxycarbonyl)-trans-4-hydroxy-L-proline methyl ester and 50 mM N-(methoxycarbonyl)-cis-4-hydroxy-D-proline methyl ester in 0.100M potassium phosphate (pH 7.0) was mixed with 403 mg of immobilized Candida antartica lipase fraction B (Boehringer Mannheim, CHIRAZYME® L-2, c.-f., C2, lyo.) at 31° C. The reaction was analyzed by mixing the entire reaction mixture with an equivalent volume of 0.100M propionic acid (HPLC internal standard) in water […]. An aliquot of the resulting solution was filtered through a 10K molecular weight cut-off filter to remove the enzyme and the filtrate analyzed by high pressure liquid chromatography on a HPX-87H column (Bio-Rad, 30 cm×7.8 mm) to determine the percent conversion of each isomer of the distereomeric mixture, and the diastereomeric excess of the N-(methoxycarbonyl)-cis-4-hydroxy-D-proline methyl ester. After 7 h, a 94% diastereomeric excess of N-(methoxycarbonyl)-cis-4-hydroxy-D-proline methyl ester was obtained at 49% conversion of the diastereomeric mixture (3.2% N-(methoxycarbonyl)-trans-4-hydroxy-L-proline methyl ester remained).
as §3, with “A 5.0” for “A 3.0”, “containing 51” for “containing 50”, “and 51” for “and 50”, “with 50” for “with 2.1”, “the N-(methoxycarbonyl)-trans-4-hydroxy-D-prolinemethyl” for “the N-(methoxycarbonyl)-cis-4-hydroxy-D-proline methyl”
A 5.0 mL aqueous solution containing 50 mM N-(methoxycarbonyl)-cis-4-hydroxy-D-proline methyl ester and 50 mM N-(methoxycarbonyl)-cis-4-hydroxy-L-proline methyl ester in 0.100M potassium phosphate (pH 7.0) and 50 mg/mL of Candida antartica lipase fraction B was mixed at 25° C. The reaction was analyzed by removal of two 0.200 mL aliquots at pre-determined times. One 0.200 mL aliquot was mixed with an equivalent volume of 0.100M propionic acid (HPLC internal standard) in water, and the resulting solution filtered through a 10K molecular weight cut-off filter to remove the enzyme. The filtrate was then analyzed by high pressure liquid chromatography on a HPX-87H column (Bio-Rad, 30 cm×7.8 mm) to determine the total percent conversion of both the D- and L-proline isomers of the N-(methoxycarbonyl)-cis-4-hydroxyproline methyl esters. […]

[4] = target: T1, Candida antartica lipase fraction B (CALB); experiment: Relative rates of hydrolysis of N-(alkoxycarbonyl)-trans-4-hydroxy-L-proline methyl esters by CALB; assay type: biochemical; conditions: 50 mM substrate, 3.0 mg/mL CALB, 25° C.
Procedure: A 2.0 mL aqueous solution containing 50 mM N-(methoxycarbonyl)-trans-4-hydroxy-L-proline methyl ester, or 50 mM N-(ethoxycarbonyl)-trans-4-hydroxy-L-proline methyl ester, or 50 mM N-(tert-butoxycarbonyl)-trans-4-hydroxy-L-proline methyl ester in 0.100M potassium phosphate (pH 7.0) and 3.0 mg/mL of Candida antartica lipase fraction B was mixed at 25° C. The reactions were analyzed by removal of 0.200 mL aliquots at pre-determined times and mixing the sample with an equivalent volume of 0.100M propionic acid (HPLC internal standard) in water, and filtering the resulting solution through a 10K molecular weight cut-off filter to remove the enzyme. The filtrate was then analyzed by high pressure liquid chromatography on a HPX-87H column (Bio-Rad, 30 cm×7.8 mm) to determine the percent conversion of the N-(alkoxycarbonyl)-trans-4-hydroxy-L-proline methyl ester. Complete hydrolysis of the methyl ester of the N-methoxy-, N-ethoxy-, and N-tert-butoxycarbonyl derivatives occurred in 5 h, 2 h, and 6 h, respectively, and the initial reaction rates were 5.7, 18.7, and 3.3 micromoles/h/mg enzyme catalyst, respectively.

[5] = candida antartica lipase b, 24 h, 51000 µM, pH 7

## COC(=O)[C@H]1CC(=O)CN1C(=O)OC [KDP(MEMC), N-(methoxycarbonyl)-4-keto-D-proline methyl ester]
[1]
  share of isomer remaining at 51% conversion: 97.5%
[2]; pH 5.0, after 24 h
  recovery with no enzyme: 95%
[2]
  isomer lost without added enzyme: approximately 3%

## COC(=O)[C@@H]1CC(=O)CN1C(=O)OC [KLP(MEMC), N-(methoxycarbonyl)-4-keto-L-proline methyl ester]
[1]
  share of isomer remaining at 51% conversion: 2.5%
[2]
  isomer lost without added enzyme: approximately 3%

## COC(=O)[C@H]1C[C@@H](O)CN1C(=O)OC [CHDP(MEMC), N-(methoxycarbonyl)-cis-4-hydroxy-D-proline methyl ester]
[3]; under reaction conditions
  methyl ester hydrolysis by CALB: no hydrolysis

## COC(=O)[C@@H]1C[C@H](O)CN1C(=O)OC [CHLP(MEMC), N-(methoxycarbonyl)-cis-4-hydroxy-L-proline methyl ester]
[3]; 50 mM each, 50 mg/mL CALB, pH 7.0, 25° C., 47 h
  isomer remaining: no N-(methoxycarbonyl)-cis-4-hydroxy-L-proline methyl ester remained
[3]; [5]
  isomer remaining: 3.0%

## COC(=O)[C@H]1C[C@H](O)CN1C(=O)OC [THDP(MEMC), N-(methoxycarbonyl)-trans-4-hydroxy-D-proline methyl ester]
[3]; [5]
  isomer remaining: 82.7%

## COC(=O)[C@@H]1C[C@@H](O)CN1C(=O)OC [THLP(MEMC), N-(methoxycarbonyl)-trans-4-hydroxy-L-proline methyl ester]
[3]; 50 mM each, 2.1 mg/mL CALB, pH 7.0, 25° C., 24 h
  isomer remaining: no N-(methoxycarbonyl)-trans-4-hydroxy-L-proline methyl ester remained
[3]; 50 mM each, 4.0 mg/mL CALB, pH 7.0, 25° C., 24 h
  isomer remaining: no N-(methoxycarbonyl)-trans-4-hydroxy-L-proline methyl ester remained
[3]; candida antartica lipase b, 7 h, 50000 µM, pH 7
  isomer remaining: 3.2%
[4]; 0.100M potassium phosphate pH 7.0
  time to complete hydrolysis of the methyl ester: 5 h
[4]; pH 7.0
  initial reaction rate: 5.7 micromoles/h/mg enzyme catalyst

Reference: patent US5928933A, “Process for the enzymatic resolution of N-(alkoxycarbonyl)-4-ketoproline alkyl esters or N-(alkoxycarbonyl)-4-hydroxyproline alkyl esters using Candida antarctica lipase B” (priority 1998, dated 1999)
